Assays:
[1] = target: T1, glutathione peroxidase 4 (GPX4) (Homo sapiens, UniProt P36969); experiment: GPX4 assay kit; type: biochemical; details: read-out: % enhancement at 100 μM
T1 sequence (P36969 28-197): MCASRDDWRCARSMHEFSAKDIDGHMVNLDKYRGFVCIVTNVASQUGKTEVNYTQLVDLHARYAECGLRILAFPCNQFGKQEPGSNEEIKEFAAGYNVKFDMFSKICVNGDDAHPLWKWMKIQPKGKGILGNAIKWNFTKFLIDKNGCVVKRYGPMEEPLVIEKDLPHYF

[2] = target: T1, glutathione peroxidase 4 (GPX4); experiment: GPX4 inhibitor screening assay kit; type: biochemical

SMILES	activation at 100 µM [1]	IC50 [2]
O=C(OC[C@H]1O[C@@H](OC(=O)c2cc(O)c(O)c(OC(=O)c3cc(O)c(O)c(O)c3)c2)[C@H](OC(=O)c2cc(O)c(O)c(OC(=O)c3cc(O)c(O)c(O)c3)c2)[C@@H](OC(=O)c2cc(O)c(O)c(OC(=O)c3cc(O)c(O)c(O)c3)c2)[C@@H]1OC(=O)c1cc(O)c(O)c(OC(=O)c2cc(O)c(O)c(O)c2)c1)c1cc(O)c(O)c(OC(=O)c2cc(O)c(O)c(O)c2)c1 [TA, tannic acid]	19%	–
COC(=O)c1ccc([C@H]2c3[nH]c4ccccc4c3C[C@H](C(=O)OC)N2C(=O)CCl)cc1 [RSL3]	–	17.17 ± 0.17 µM

Reference: paper PMC10498722 (Chemical Science, 2023)
